Test results as given in patent publication US20260015354A1, “Solid State Forms of Ensifentrine” (Cipla Limited, priority 2022, published 2026).
Values after ≈ are worked out from the molar mass of the structure shown.

Assay: Comparative solubility of crystalline forms of Ensifentrine at pH 3
Format: physicochemical
Details: for solubility compared to Form I: comparison in words
Text: The solubility of Form C1 and Form I disclosed in U.S. Pat. No. 9,062,047 at pH 3 were compared.
The solubility of Form C3 and Form I disclosed in U.S. Pat. No. 9,062,047 at pH 3 was compared.

Row | SMILES | solubility compared to Form I | solubility (time 15 min) | solubility (time 30 min) | solubility (time 60 min) | solubility (time 120 min) | solubility (time 240 min)
1 | COc1cc2c(cc1OC)-c1c/c(=N\c3c(C)cc(C)cc3C)n(CCNC(N)=O)c(=O)n1CC2 [Form C1] | better solubility compared to Form I | – | – | – | – | –
2 | COc1cc2c(cc1OC)-c1c/c(=N\c3c(C)cc(C)cc3C)n(CCNC(N)=O)c(=O)n1CC2 [Form C3] | better solubility compared to Form I | 2.11 mg/mL (≈ 4.42 mM) | 1.96 mg/mL (≈ 4.1 mM) | 2.00 mg/mL (≈ 4.19 mM) | 2.05 mg/mL (≈ 4.29 mM) | 2.13 mg/mL (≈ 4.46 mM)
3 | COc1cc2c(cc1OC)-c1c/c(=N\c3c(C)cc(C)cc3C)n(CCNC(N)=O)c(=O)n1CC2 [Form I, reference compound] | – | 1.38 mg/mL (≈ 2.89 mM) | 1.39 mg/mL (≈ 2.91 mM) | 1.31 mg/mL (≈ 2.74 mM) | 1.35 mg/mL (≈ 2.83 mM) | 1.39 mg/mL (≈ 2.91 mM)
